Assay results taken from paper PMC11859423, “Fluorescent Probes to Image the KCa3.1 Channel in Tumor Cells” (Pharmaceutics, 2025).
Where “and” joins values, the source holds several entries; their conditions need not be identical. Equal values may be shown once. Entries after “also recorded” stand apart in the source; their conditions may differ.

Experiments:
[1] = molecular target: T1, KCa3.1 channel in A549-3R cells (Homo sapiens, UniProt O15554); assay: Staining of fixed A549-3R tumor cells (Protocol 1), fluorescence microscopy; format: cell-based; conditions: 10 min, 4 °C
T1 construct: the non-small cell lung cancer cell line A549-3R with a high expression of the KCa3.1 channel was employed; endogenous in cells; host or cells: A549-3R cells
Procedure: For the fixation of the cells, the DMEM medium was removed from the glass bottom dish after incubation for 24 h, and the cells were washed with 1 mL of PBS. Subsequently, 1 mL of 4% paraformaldehyde in PBS solution was added to the glass bottom dish and the mixture was incubated for 30 min at room temperature. Thereafter, the cells were washed five times with 1 mL of PBS and used for the cell staining experiments.
(§1) After fixation of the cells (Section 2.10.2), 300 µL of the 10 µM staining solution was added to the glass bottom dish. The cells were incubated for 10 min at 4 °C in a dark chamber. After incubation, the cells were washed five times with 1 mL of PBS and used subsequently for fluorescence microscopy.
An Axiovert 200 inverted microscope (Carl Zeiss AG, Jena, Germany) with a ×100 oil immersion objective and a digital camera (SPOT RT SE from Diagnostic Instruments Inc., Livingston, UK) were used. The camera was controlled by MetaVue software (version 6.3r6, Visitron, Germany). Two different filter sets were employed, the FITC filter set (Carl Zeiss Filter Set 10 bandwidth excitation filter 450–490, color splitter 510, bandpass filter 515–565) and the TRITC filter set (Carl Zeiss Filter Set 15, bandpass excitation filter 546/12, dichroic mirror 580, emission filter Long Pass 590).
Using the free imaging software ImageJ (1.53f51, NIH, USA), squares with an edge length of 50 × 50 pixels, corresponding to an area of 9 µm^2, were randomly placed in a cell and signals with Full Width at Half Maximum (FWHM) of ≤5 pixels (~300 nm) were counted as a KCa3.1 channel. For the evaluation, 7 squares were analyzed.
For the staining experiments, the non-small cell lung cancer cell line A549-3R with a high expression of the KCa3.1 channel was employed. An optimized staining protocol (Protocol 1) described previously was followed to analyze the imaging properties of the fluorescent probes. In brief, the 10 µM solution of the senicapoc–dye conjugate in PBS was added to adherent A549-3R cells in a glass bottom dish and the set-up was incubated for 10 min at 4 °C in a dark chamber. After careful washing, the cells were analyzed with a fluorescence microscope.
The images were analyzed with respect to size and density of the fluorescent dots. For this purpose, a square with a size of 50 × 50 pixels was randomly placed on the cell images using ImageJ. The intensities of the signals within the square were analyzed to calculate the Full Width at Half Maximum (FWHM) for each selected dot, which represents a measure for the signal size. For the accurate representation of a single KCa3.1 channel, the FWHM should be in the range of five pixels. Signals with a FWHM of ≤5 pixels within the square were regarded as labeled KCa3.1 channels and the number of identified channels was used to determine the density of the ion channels on the cells (Figure S8, Supplementary Materials).

HEK293 cells = assay: Negative control staining of HEK293 cells, which do not express KCa3.1 channels; format: cell-based; conditions: HEK293 cells do not express KCa3.1 channels
Procedure: as §1
In a second control experiment, azide precursor 7b without the senicapoc warhead was incubated with fixed A549-3R tumor cells.

[2] = logP by HPLC retention time correlation; format: physicochemical; conditions: standardized reversed phase HPLC system
Procedure: The logP values were recorded using HPLC analysis. Thus, the retention time of the test compound in a standardized reversed phase HPLC system is correlated with the retention times of compounds with known logP values.
In addition to the logD7.4 values, the logP values of the fluorescent probes were recorded by HPLC, i.e., after calibration of the method, the retention times were correlated with the logP values or the compounds [33]. […] Fluorescein-labeled ligands 21a and 21b are considerably more polar than the corresponding bodipy-labeled senicapoc derivatives.

[3] = logD7.4 by micro shake flask method (n-octanol / MOPS buffer pH 7.4, LC-MS); format: physicochemical; conditions: read-out: logD7.4 ± SD (Micro Shake Flask)
Procedure: The logD7.4 values were recorded using the micro shake flask method. In this method, the test compound is distributed between n-octanol and MOPS buffer pH 7.4, and the amount of the compound in the buffer layer is determined by mass spectrometry.
The new fluorescent dyes were designed to increase the polarity and reduce the non-specific labeling of lipophilic membranes of cells. Moreover, a higher polarity should lead to increased water solubility and thus improved handling of the dyes. The logD7.4 value was recorded as a measure of the polarity/lipophilicity using our recently published micro-shake flask method. According to this method, the amount of compound in the aqueous 3-morpholinopropanesulfonic acid (MOPS) buffer pH 7.4 was determined by LC-MS [31, 32].

[4] = molecular target: T1, KCa3.1 channel in A549-3R cells; assay: Blocking of staining by preincubation with senicapoc, fixed and living A549-3R cells (Protocols 3 and 4); format: cell-based; conditions: 30 µM senicapoc, 5 min, 4 °C
Procedure: After fixation of the cells (Section 2.10.2), 300 µL of a 30 µM solution of senicapoc blocking solution was added to the glass bottom dish. The glass bottom dish was incubated for 5 min at 4 °C. After incubation, the solution was removed and a mixture of 150 µL of 60 µM senicapoc solution and 150 µL of 20 µM staining solution were added to the glass bottom dish. The cells were incubated for 10 min at 4 °C in a dark chamber. Subsequently, the cells were washed five times with PBS and then used for fluorescence microscopy.
The cells were used without fixation. After incubating the cells for 24 h (Section 2.10.1), the medium was removed, and the cells were washed three times with 1 mL of PBS. Subsequently, the cells were stained as described in Protocol 3.
In order to show the specificity of labeling KCa3.1 channels by the fluorescent probe 10b, fixed and living cells were preincubated with 30 µM senicapoc (3) for 5 min at 4 °C. […] The complete blockade of the punctate staining pattern confirms that the KCa3.1 channel was labeled with probe 10b.

CCC1=C(C)C2=C(c3ccc(OCCOCCn4cc(COc5ccc(C(C(N)=O)(c6ccccc6)c6ccc(F)cc6)cc5)nn4)cc3)c3c(C)c(CC)c(C)n3[B-](F)(OC)[N+]2=C1C (stereo not shown) [10b, 2-{4-[(1-{2-[4-(2,6-Diethyl-4-fluoro-4-methoxy-1,3,5,7-tetramethyl-4-bora-3a,4a-diaza-s-indacen-8-yl)phenoxy]ethoxyethyl}-1,2,3-triazol-4-yl)methoxy]phenyl}-2-(4-flluorophenyl)-2-phenylacetamide]
staining pattern of fixed A549-3R tumor cells ([1]; 10 µM in PBS, Protocol 1): expected punctate staining pattern of the membrane | FWHM of fluorescent dots ([1]; fixed A549-3R cells, 10 µM): 5.27 ± 0.22 pixels and 5.27 pixels | density of labeled KCa3.1 channels ([1]; fixed A549-3R cells, 10 µM): 1.22 ± 0.26 KCa3.1 channels per µm^2 and 1.22 KCa3.1 channels per µm^2 | staining pattern of HEK293 cells (negative control) (HEK293 cells): a punctate staining pattern was not observed; also recorded: could not be observed | chromatographic logP [2]: 5.8 | logD [3]: > 5 | staining pattern after preincubation with senicapoc [4]: did not lead to a punctate staining pattern
